In brackets after ≈: the same amount, converted by molar mass.
How the values were obtained:
Format in all cases: cell-based, human
PBMCs [1] = assay: Secreted cytokines by CBA after 24 h LPS stimulation (modified protocol)
Description: (§1) Previous methods utilized stimulation with TLR agonists (LPS is for […] and Poly I:C is for TLR3) for 67 h to measure intracellular cytokines and secreted cytokines.
To measure immunomodulatory effects, PBMCs were stimulated with LPS for different time periods and the secreted cytokines were measured by cytometric bead array (CBA) method. To establish LPS stimulation time, PBMCs were exposed to LPS stimulation for 4 h, 24 h, 48 h and 72 h and secreted cytokines were measured.

PBMCs [2] = assay: Cytolytic assay: killing of CFSE-labeled K562 target cells by TPP-treated PBMCs
Description: The K562 cell line was used as a target in a cytolytic assay. K562 cells were purchased from ATCC (Manassas Va., USA) and grown in RPMI complete media. One vial of cryopreserved PBMCs was thawed and washed, and a live cell count was taken. Different concentrations of TPPs were prepared in 100 μL media. 1.5×10^6 PBMCs in a 50 μL volume were added to each well and incubated for 1.5 h at 37° C. in 96-well round bottom plates. K562 target cells were labeled with carboxy fluorescein succinimidyl ester (CFSE) and added at a density of 100,000 cells/well (target:effector ratio is 1:15). Cell co-cultures were incubated at 37° C. for an additional 4 h. Immediately after the incubation period, cells were stained with 7AAD (which labels the dead cells) and the killing of CFSE-labeled K562 target cells was evaluated after 7AAD staining by flow cytometric analysis (BD Biosciences, San Jose, Calif.). Flow data were analyzed using Flow Jo software (Tree Star, Ashland, Oreg.).

PBMCs and NK cells = assay: Perforin levels in TPP-treated total PBMCs and NK cells; conditions: PBMC populations or NK cells
PBMCs [3] = assay: IL-8 secretion by ELISA after LPS stimulation; conditions: 2 mg/mL
Description: Suppression of cytokines was also evident with nicotine. […] Next were measured IL-8 levels in the same samples as above using an ELISA assay.

NK cells [4] = assay: TNF-α+ NK cells in poly I:C- and LPS-stimulated PBMCs treated with TPPs
Description: Cells were washed after 3 h treatment and re-plated in a 48-well plate at 1 million cells/well/mL with and without the presence of 10 μg/mL polyinosinic:polycytidylic acid (poly I:C) or lipopolysaccharide (LPS). After a 67 h incubation, supernatants were taken for secreted cytokine analysis. Cells were plated onto a 96-well plate at 1×10^6/mL and further incubated for 4 h with 200 μL of media with Golgiplug (1 μg/mL) (BD Biosciences, San Jose, Calif.) to measure intracellular cytokines. Cells were then harvested, washed and surface stained for CD56-PE and CD2-FITC, CD69-APC monoclonal antibodies (mAB) for 30 min at 4° C. After washing, cells were fixed and permeabilized with BD Biosciences Cytofix/Cytoperm buffer for 20 min on ice in the dark. Cells were then stained with anti-IFN-γ-PE, anti-TNF-α-APC and anti-perforin-FITC mAB and incubated for an additional 30 min on ice. After washing the cells, they were re-suspended in a total volume of 200 μL of 2% paraformaldehyde for FACS analysis. Forward scatter, side scatter, fluorescence intensity and percent positivity were measured after acquiring 100,000 cells per sample by flow cytometry (BD Biosciences, San Jose, Calif.), and the data were analyzed using Cell Quest (BD Biosciences, San Jose, Calif.) and Flow Jo (Tree Star, Ashland, Oreg.) software.

PBMCs [5] = assay: Cell death / viability of PBMCs by 7AAD staining (flow cytometry)
Description: Cell death measured by 7-Aminoactinomycin D (7AAD) staining method is simple and more reliable as 7AAD intercalates into double-stranded nucleic acids and can penetrate cell membranes of dying or dead cells.

NK cells [6] = assay: CD69 expression in NK cells of TPP-treated PBMCs (flow cytometry); conditions: 1650 μg/mL
Description: Cells were washed after 3 h treatment and re-plated in a 48-well plate at 1 million cells/well/mL with and without the presence of 10 μg/mL polyinosinic:polycytidylic acid (poly I:C) or lipopolysaccharide (LPS). After a 67 h incubation, supernatants were taken for secreted cytokine analysis. Cells were plated onto a 96-well plate at 1×10^6/mL and further incubated for 4 h with 200 μL of media with Golgiplug (1 μg/mL) (BD Biosciences, San Jose, Calif.) to measure intracellular cytokines. Cells were then harvested, washed and surface stained for CD56-PE and CD2-FITC, CD69-APC monoclonal antibodies (mAB) for 30 min at 4° C. After washing, cells were fixed and permeabilized with BD Biosciences Cytofix/Cytoperm buffer for 20 min on ice in the dark. […] Forward scatter, side scatter, fluorescence intensity and percent positivity were measured after acquiring 100,000 cells per sample by flow cytometry (BD Biosciences, San Jose, Calif.), and the data were analyzed using Cell Quest (BD Biosciences, San Jose, Calif.) and Flow Jo (Tree Star, Ashland, Oreg.) software.
CD69 is an early inducible cell surface glycoprotein expressed during lymphoid activation and is involved in NK cell function. PBMCs were treated with TPPs, and CD69 expression on NK cell population was analyzed by flow cytometry after poly I:C and LPS stimulation.

T cells = assay: Intracellular TNF-α and IFN-γ positive T cells in TPP-treated PBMCs stimulated with poly I:C or LPS (flow cytometry)
Description: Dosing was based on an equi-nicotine exposure paradigm. Cells were washed after 3 h treatment and re-plated in a 48-well plate at 1 million cells/well/mL with and without the presence of 10 μg/mL polyinosinic:polycytidylic acid (poly I:C) or lipopolysaccharide (LPS). After a 67 h incubation, supernatants were taken for secreted cytokine analysis. Cells were plated onto a 96-well plate at 1×10^6/mL and further incubated for 4 h with 200 μL of media with Golgiplug (1 μg/mL) (BD Biosciences, San Jose, Calif.) to measure intracellular cytokines. Cells were then harvested, washed and surface stained for CD56-PE and CD2-FITC, CD69-APC monoclonal antibodies (mAB) for 30 min at 4° C. After washing, cells were fixed and permeabilized with BD Biosciences Cytofix/Cytoperm buffer for 20 min on ice in the dark. Cells were then stained with anti-IFN-γ-PE, anti-TNF-α-APC and anti-perforin-FITC mAB and incubated for an additional 30 min on ice. After washing the cells, they were re-suspended in a total volume of 200 μL of 2% paraformaldehyde for FACS analysis. Forward scatter, side scatter, fluorescence intensity and percent positivity were measured after acquiring 100,000 cells per sample by flow cytometry (BD Biosciences, San Jose, Calif.), and the data were analyzed using Cell Quest (BD Biosciences, San Jose, Calif.) and Flow Jo (Tree Star, Ashland, Oreg.) software.
It was sought to evaluate intracellular cytokine levels in T cells after treating with combustible and non-combustible TPPs. In a first set of experiments, measured was the induction of intracellular TNF-α and IFN-γ by flow cytometry after PBMCs were treated with TPPs and stimulated with either poly I:C or LPS.
It was assessed whether the pretreatment of PBMCs with TPPs compromised their ability to produce TNF-α^+ cells when stimulated with poly I:C and LPS.
Evaluated also were changes in the number of IFN-γ^+ T cells with TPP treatment followed by poly I:C and LPS stimulation.

PBMCs [7] = assay: Intracellular cytokine-positive cells after 6 h LPS plus Golgiplug (modified protocol); conditions: total 6 h
Description: as §1

Structure (SMILES): CN1CCCC1c1cccnc1 (centres unmarked) [nicotine]
- secreted cytokines (PBMCs [1]; LPS stimulation, 24 h): dose-dependent decrease
- secreted IL-6 (PBMCs [1]; highest concentration (4 mg/mL) tested, LPS 24 h): suppressed
- secreted IFN-γ (PBMCs [1]; range of concentrations up to 500 μg/mL of nicotine, LPS 24 h): significantly suppressed
- target cell killing ability (PBMCs [2]; K562 targets, target:effector 1:15): did not reduce
- cell killing (K562 targets) (PBMCs [2]; low and high doses): did not interfere
- changes in perforin levels (PBMCs and NK cells): did not result in statistically significant changes
- IL-8 secretion, suppressive effects (PBMCs [3]): significant
- changes in TNF-α+ NK cells (NK cells [4]; higher dose (1650 μg/mL), after LPS stimulation): statistically significant reduction
- changes in TNF-α+ NK cells (NK cells [4]; lower doses (10 and 500 μg/mL)): did not induce statistically significant changes
- cell death (PBMCs [5]; 3 h, 2000 μg/mL): 8%
- cell death (PBMCs [5]; 24 h, 3,000 μg/mL nicotine, comparable to near 80%): comparable degree of cell death
- EC50 (PBMCs [5]; Homo sapiens, PBMC, 7AAD positive staining of PBMCs, 24 h assay, neat nicotine, read-out: EC50 (concentration at which 50% of the cells were no longer viable)): 1650 µg/mL (≈ 10.2 mM)
- basal levels of the induction of CD69 relative to untreated cells (NK cells [6]): did not increase
- basal levels of TNF-α+ T cells (T cells; 1650 μg/mL, basal (unstimulated)): higher basal levels
- TNF-α+ T cell numbers (T cells; 10-1650 μg/mL, poly I:C and LPS stimulation): did not yield statistically significant differences
- IFN-γ+ T cells (cytokine-positive cells) (T cells; only at the highest concentrations, changes not statistically significant): Measurable suppression
- IFN-γ-positive cells, TNF-α-positive cells and MIP-1α-positive cells (PBMCs [7]): dose-dependent percent reduction
